Test results: patent US10287301B2 (Achillion Pharmaceuticals, Inc., priority 2015, dated 2019)
pIC50: −log10 of the molar value. Read-outs that look alike come from different tables or passages of the source.

Target: Human Factor D (Homo sapiens (Human), UniProt P00746)
Assay: Human Factor D Assay
Format: biochemical
In short: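 Thioester cleavage assay: human Factor D (serum-derived, 80 nM final), substrate Z-L-Lys-SBzl with DTNB, both 100 μM final, after 5 min compound preincubation at room temperature.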

[1] = Human Factor D, Table 3, read-out: IC50
[2] = Human Factor D assay of Example 8, Table 2, read-out: IC50
[3] = Human Factor D 80 nM, substrate Z-L-Lys-SBzl, read-out: IC50
[4] = Table 3, Human Factor D 80 nM, substrate Z-L-Lys-SBzl, read-out: IC50 (Stars)

Chain of Human Factor D (P00746 26-253): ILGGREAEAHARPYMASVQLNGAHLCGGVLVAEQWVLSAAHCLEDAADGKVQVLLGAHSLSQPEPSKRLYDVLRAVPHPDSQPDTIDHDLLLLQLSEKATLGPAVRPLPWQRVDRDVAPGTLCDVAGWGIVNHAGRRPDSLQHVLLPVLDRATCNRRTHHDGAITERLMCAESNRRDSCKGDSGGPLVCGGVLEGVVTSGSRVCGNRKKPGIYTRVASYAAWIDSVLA

Row | Structure (SMILES) | pIC50 [1] | pIC50 [4] | also measured
1 | CC(=O)c1nn(CC(=O)N2CCOC[C@H]2C(=O)Nc2cccc(Br)n2)c2ccc(-c3cnc(C)nc3)cc12 [Compound 749, (S)-4-(2-(3-acetyl-5-(2-methylpyrimidin-5-yl)-1H-indazol-1-yl)acetyl)-N-(6-bromopyridin-2-yl)morpholine-3-carboxamide] | > 6.00 | – | –
2 | CC(=O)c1nn(CC(=O)N2C[C@H](F)C[C@H]2C(=O)Nc2cncc(Br)n2)c2ccc(-c3cnc4cc(C)nn4c3)cc12 [Compound 306, (2S,4R)-1-(2-(3-acetyl-5-(2-methylpyrazolo[1,5-a]pyrimidin-6-yl)-1H-indazol-1-yl)acetyl)-N-(6-bromopyrazin-2-yl)-4-fluoropyrrolidine-2-carboxamide] | – | – | pIC50 [2]: > 6.00
3 | NC(=O)c1nn(CC(=O)N2[C@@H]3C[C@@H]3C[C@H]2C(=O)Nc2cccc(Br)n2)c2ccc(-c3cncnc3)cc12 [Compound 4] | – | – | pIC50 [3]: > 6.00
4 | NC(=O)c1nn(CC(=O)N2C[C@H](F)C[C@H]2C(=O)Nc2cccc(O)n2)c2ccc(-c3ccnnc3)cc12 [Compound 174, 1-(2-((2S,4R)-4-fluoro-2-(6-hydroxypyridin-2-ylcarbamoyl)pyrrolidin-1-yl)-2-oxoethyl)-5-(pyridazin-4-yl)-1H-indazole-3-carboxamide] | – | – | pIC50 [3]: < 5.00
5 | COc1ccc(-c2ccc3c(c2)c(C(C)=O)nn3CC(=O)N2CC[C@H]2C(=O)Nc2cccc(C)n2)cn1 [Compound 546, (S)-1-(2-(3-Acetyl-5-(6-methoxypyridin-3-yl)-1H-indazol-1-yl)acetyl)-N-(6-methylpyridin-2-yl)azetidine-2-carboxamide] | < 5.00 | – | –
6 | Cc1cccc(C[C@H](O)[C@@H]2C[C@@H](F)CN2C(=O)Cn2cc(C(N)=O)c3cc(-c4cnc(C)nc4)ccc32)n1 [Compound 455, 1-(2-((2S,4R)-4-fluoro-2-((S)-1-hydroxy-2-(6-methylpyridin-2-yl)ethyl)pyrrolidin-1-yl)-2-oxoethyl)-5-(2-methylpyrimidin-5-yl)-1H-indole-3-carboxamide] | – | < 5.00 | –
7 | CC(=O)c1nn(CC(=O)N2C[C@H](F)C[C@@H]2C(=O)Nc2nc(Br)ccc2C(=O)O)c2ccc(-c3cnc(C)nc3)cc12 [Compound 648, 2-((2R,4R)-1-(2-(3-Acetyl-5-(2-methylpyrimidin-5-yl)-1H-indazol-1-yl)acetyl)-4-fluoropyrrolidine-2-carboxamido)-6-bromonicotinic acid] | < 5.00 | – | –
8 | CC(=O)c1nn(CC(=O)N2C[C@H](F)C[C@H]2C(=O)Nc2cccc(Br)n2)c2ccc(-c3cnc4cc(F)nn4c3)cc12 [Compound 683, (2S,4R)-1-(2-(3-Acetyl-5-(2-fluoropyrazolo[1,5-a]pyrimidin-6-yl)-1H-indazol-1-yl)acetyl)-N-(6-bromopyridin-2-yl)-4-fluoropyrrolidine-2-carboxamide] | > 6.00 | – | –
9 | CC(=O)c1nn(CC(=O)N2C[C@H](F)C[C@H]2C(=O)Nc2nc(Br)ccc2C)c2ccc(-c3ccnc(C)n3)cc12 [Compound 468, (2S,4R)-1-(2-(3-Acetyl-5-(2-methylpyrimidin-4-yl)-1H-indazol-1-yl)acetyl)-N-(6-bromo-3-methylpyridin-2-yl)-4-fluoropyrrolidine-2-carboxamide] | – | > 6.00 | –
10 | CC(=O)c1nn(CC(=O)N2CC[C@H]2C(=O)Nc2cccc(C)n2)c2ccc(-c3ccc4ccccc4c3)cc12 [Compound 587, (S)-1-(2-(3-Acetyl-5-(naphthalen-2-yl)-1H-indazol-1-yl)acetyl)-N-(6-methylpyridin-2-yl)azetidine-2-carboxamide] | < 5.00 | – | –
11 | CC(=O)c1nn(CC(=O)N2[C@H](C(=O)Nc3cccc(OC(F)(F)F)n3)C[C@@]3(C)C[C@@H]23)c2ccc(-c3cnc(C)nc3)cc12 [Compound 624, (1R,3S,5R)-2-(2-(3-acetyl-5-(2-methylpyrimidin-5-yl)-1H-indazol-1-yl)acetyl)-5-methyl-N-(6-(trifluoromethoxy)pyridin-2-yl)-2-azabicyclo[3.1.0] hexane-3-carboxamide] | > 6.00 | – | –
12 | CC(=O)c1nn(CC(=O)N2[C@@H]3C[C@@H]3C[C@H]2C(=O)Nc2ccc(F)c(Br)n2)c2ccc(-c3cnc(C)nc3)cc12 [Compound 447, (1R,3S,5R)-2-(2-(3-Acetyl-5-(2-methylpyrimidin-5-yl)-1H-indazol-1-yl)acetyl)-N-(6-bromo-5-fluoropyridin-2-yl)-2-azabicyclo[3.1.0]hexane-3-carboxamide] | – | > 6.00 | –
13 | CC(=O)c1nn(CC(=O)N2C(C(=O)Nc3cccc(Br)n3)C[C@@]3(CN(C)C)C[C@@H]23)c2ccc(-c3cnc(C)nc3)cc12 (stereo in doubt) [Compound 577, (1R,3S,5R)-2-(2-(3-Acetyl-5-(2-methylpyrimidin-5-yl)-1H-indazol-1-yl)acetyl)-N-(6-bromopyridin-2-yl)-5-((dimethylamino)methyl)-2-azabicyclo[3.1.0]hexane-3-carboxamide] | > 6.00 | – | –
14 | CC(=O)c1nn(CC(=O)N2[C@@H]3C[C@@H]3C[C@H]2C(=O)Nc2cnc(C)c(Br)n2)c2ccc(-c3cnc(C)nc3)cc12 [Compound 365, (1R,3S,5R)-2-(2-(3-Acetyl-5-(2-methylpyrimidin-5-yl)-1H-indazol-1-yl)acetyl)-N-(6-bromo-5-methylpyrazin-2-yl)-2-azabicyclo[3.1.0]hexane-3-carboxamide] | – | > 6.00 | –
15 | CC(=O)c1nn(CC(=O)N2C[C@H](F)C[C@H]2C(=O)NC2(C#N)CC2)c2ccc(-c3cnc(C)nc3)cc12 [Compound 739, (2S,4R)-1-(2-(3-acetyl-5-(2-methylpyrimidin-5-yl)-1H-indazol-1-yl)acetyl)-N-(1-cyanocyclopropyl)-4-fluoropyrrolidine-2-carboxamide] | > 6.00 | – | –
16 | CC(=O)c1nn(CC(=O)N2C[C@H](F)C[C@H]2C(=O)Nc2cccc(Br)n2)c2ccc(-c3cnn(C4CC4)c3)cc12 [Compound 706, (2S,4R)-1-(2-(3-Acetyl-5-(1-cyclopropyl-1H-pyrazol-4-yl)-1H-indazol-1-yl)acetyl)-N-(6-bromopyridin-2-yl)-4-fluoropyrrolidine-2-carboxamide] | > 6.00 | – | –
17 | CCOc1ncc(-c2ccc3c(c2)c(C(C)=O)cn3CC(=O)N2C[C@H](F)C[C@H]2C(=O)Nc2cccc(-c3ccccc3Cl)c2F)cn1 [Compound 194, (2S,4R)-1-(2-(3-acetyl-5-(2-ethoxypyrimidin-5-yl)-1H-indol-1-yl)acetyl)-N-(2′-chloro-2-fluorobiphenyl-3-yl)-4-fluoropyrrolidine-2-carboxamide] | – | – | pIC50 [2]: > 6.00
18 | CC(=O)c1nn(CC(=O)N2C[C@H](F)C[C@H]2C(=O)Nc2cccc(Br)n2)c2ccc(-c3ccc4ncncc4c3)cc12 [Compound 504, (2S,4R)-1-(2-(3-Acetyl-5-(quinazolin-6-yl)-1H-indazol-1-yl)acetyl)-N-(6-bromopyridin-2-yl)-4-fluoropyrrolidine-2-carboxamide] | – | > 6.00 | –
19 | CC(=O)c1nn(CC(=O)N2C[C@H](F)C[C@H]2C(=O)Nc2cc(Br)n(C)n2)c2ccc(-c3cnc(C)nc3)cc12 [Compound 381, (2S,4R)-1-(2-(3-Acetyl-5-(2-methylpyrimidin-5-yl)-1H-indazol-1-yl)acetyl)-N-(5-bromo-1-methyl-1H-pyrazol-3-yl)-4-fluoropyrrolidine-2-carboxamide] | – | > 6.00 | –
20 | CC(=O)c1nn(CC(=O)N2[C@@H]3C[C@@H]3C[C@H]2C(=O)NCc2cccc(Cl)c2F)c2ccc(-c3cnc4ccnn4c3)cc12 [Compound 240, (1R,3S,5R)-2-(2-(3-acetyl-5-(pyrazolo[1,5-a]pyrimidin-6-yl)-1H-indazol-1-yl)acetyl)-N-(3-chloro-2-fluorobenzyl)-2-azabicyclo[3.1.0] hexane-3-carboxamide] | – | – | pIC50 [2]: > 6.00
21 | CC(=O)c1nn(CC(=O)N2C[C@H](F)C[C@H]2C(=O)NC[C@@H]2CCN(C)C2)c2ccc(-c3cnc(C)nc3)cc12 [Compound 568, (2S,4R)-1-(2-(3-Acetyl-5-(2-methylpyrimidin-5-yl)-1H-indazol-1-yl)acetyl)-4-fluoro-N—(((S)-1-methylpyrrolidin-3-yl)methyl)pyrrolidine-2-carboxamide] | < 5.00 | – | –
22 | CC(=O)c1nn(CC(=O)N2[C@@H]3C[C@@H]3C[C@H]2C(=O)Nc2nc(Br)ccc2CO)c2ccc(-c3cnc(C)nc3)cc12 [Compound 574, (1R,3S,5R)-2-(2-(3-acetyl-5-(2-methylpyrimidin-5-yl)-1H-indazol-1-yl)acetyl)-N-(6-bromo-3-(hydroxymethyl)pyridin-2-yl)-2-azabicyclo[3.1.0] hexane-3-carboxamide] | > 6.00 | – | –
23 | CC(=O)c1nn(CC(=O)N2[C@@H](C)CC[C@H]2C(=O)Nc2cccc(Br)n2)c2ccc(-c3cnc(C)nc3)cc12 [Compound 530, (2S,5S)-1-(2-(3-Acetyl-5-(2-methylpyrimidin-5-yl)-1H-indazol-1-yl)acetyl)-N-(6-bromopyridin-2-yl)-5-methylpyrrolidine-2-carboxamide] | – | > 6.00 | –
24 | CC(=O)c1nn(CC(=O)N2[C@@H]3C[C@@H]3C[C@H]2C(=O)Nc2cncc(Br)n2)c2ccc(-c3ccc4nc(C)nn4c3)cc12 [Compound 659, (1R,3S,5R)-2-(2-(3-Acetyl-5-(2-methyl-[1,2,4]triazolo[1,5-a]pyridin-6-yl)-1H-indazol-1-yl)acetyl)-N-(6-bromopyrazin-2-yl)-2-azabicyclo[3.1.0]hexane-3-carboxamide] | > 6.00 | – | –
25 | CC(=O)c1nn(CC(=O)N2[C@@H]3C[C@@H]3C[C@H]2C(=O)Nc2cncc(Br)n2)c2ccc(-c3cnc(N)nc3)cc12 [Compound 352, (1R,3S,5R)-2-(2-(3-Acetyl-5-(2-aminopyrimidin-5-yl)-1H-indazol-1-yl)acetyl)-N-(6-bromopyrazin-2-yl)-2-azabicyclo[3.1.0]hexane-3-carboxamide] | – | > 6.00 | –
26 | CC(=O)c1cn(CC(=O)N2C[C@H](F)C[C@H]2C(=O)Nc2cccc(-c3ccccc3Cl)c2F)c2ccc(-c3cnc(C(=O)NC4CC4)nc3)cc12 [Compound 211, 5-(3-acetyl-1-(2-((2S,4R)-2-(2′-chloro-2-fluorobiphenyl-3-ylcarbamoyl)-4-fluoropyrrolidin-1-yl)-2-oxoethyl)-1H-indol-5-yl)-N-cyclopropylpyrimidine-2-carboxamide] | – | – | pIC50 [2]: > 6.00
